Molecular target: NA activity of the H5N1 influenza viruses (Influenza A virus (H5N1), UniProt Q6DPL2)
Assay type: biochemical, human and avian HP H5N1 influenza viruses

Sequence of NA activity of the H5N1 influenza viruses (Q6DPL2 whole entry, looked up): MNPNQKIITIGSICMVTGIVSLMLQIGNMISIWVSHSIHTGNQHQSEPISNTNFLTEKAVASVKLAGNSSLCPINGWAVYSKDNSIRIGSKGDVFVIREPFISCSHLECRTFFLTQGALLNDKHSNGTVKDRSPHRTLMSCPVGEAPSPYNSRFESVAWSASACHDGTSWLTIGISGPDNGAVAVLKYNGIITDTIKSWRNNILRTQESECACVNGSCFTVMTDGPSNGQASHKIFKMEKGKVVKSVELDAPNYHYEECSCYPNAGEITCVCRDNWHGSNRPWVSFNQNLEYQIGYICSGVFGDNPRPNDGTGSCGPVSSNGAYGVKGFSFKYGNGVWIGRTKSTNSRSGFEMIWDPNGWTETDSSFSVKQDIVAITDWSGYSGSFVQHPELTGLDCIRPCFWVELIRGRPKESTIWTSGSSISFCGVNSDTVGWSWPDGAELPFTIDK

## CC(=O)N[C@H]1[C@H]([C@H](O)[C@H](O)CO)OC(C(=O)O)=C[C@@H]1N=C(N)N [Zanamivir, 4-guanidino-Neu5Ac2en]
  susceptibility in phenotypic fluorescence-based assay: fully susceptible

Reference: article PMC3648604 (Antiviral research, 2013)
